Patent US20140364428A1, “5-(3-AMINOPHENYL)-5-ALKYL-5,6-DIHYDRO-2H-[1,4]OXAZIN-3-AMINE DERIVATIVES” (Janssen Pharmaceutica NV, priority 2011, published 2014)

Experiments:
[1] = biological target: T1, BACE1 (Homo sapiens, UniProt P56817); experiment: Biochemical FRET based assay; details: recombinant BACE1 protein, APP derived 13 amino acids peptide substrate ('Swedish' mutation), 120 minutes at room temperature, pH 5.0; read-out: Biochemical FRET based assay pIC50 (converted)
T1 construct: recombinant BACE1 protein in a final concentration of 1 mg/ml
T1 sequence (P56817 46-501): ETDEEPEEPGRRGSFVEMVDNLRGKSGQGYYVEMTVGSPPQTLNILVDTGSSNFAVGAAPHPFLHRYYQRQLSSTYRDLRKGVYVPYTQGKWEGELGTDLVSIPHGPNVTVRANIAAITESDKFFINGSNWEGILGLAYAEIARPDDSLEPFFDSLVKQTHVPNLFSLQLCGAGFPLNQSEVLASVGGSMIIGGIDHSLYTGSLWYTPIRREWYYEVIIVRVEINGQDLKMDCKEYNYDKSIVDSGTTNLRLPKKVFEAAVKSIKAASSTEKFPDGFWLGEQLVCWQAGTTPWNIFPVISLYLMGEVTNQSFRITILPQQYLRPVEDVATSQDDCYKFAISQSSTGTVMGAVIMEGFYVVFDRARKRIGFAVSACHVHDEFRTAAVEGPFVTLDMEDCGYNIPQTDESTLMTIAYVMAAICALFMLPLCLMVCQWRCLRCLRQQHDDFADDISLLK
Text: This assay is a Fluorescence Resonance Energy Transfer Assay (FRET) based assay. The substrate for this assay is an APP derived 13 amino acids peptide that contains the ‘Swedish’ Lys-Met/Asn-Leu mutation of the amyloid precursor protein (APP) beta-secretase cleavage site. This substrate also contains two fluorophores: (7-methoxycoumarin-4-yl) acetic acid (Mca) is a fluorescent donor with excitation wavelength at 320 nm and emission at 405 nm and 2,4-Dinitrophenyl (Dnp) is a proprietary quencher acceptor. […] Upon cleavage by BACE1, the fluorophore Mca is separated from the quenching group Dnp, restoring the full fluorescence yield of the donor. The increase in fluorescence is linearly related to the rate of proteolysis.
Briefly in a 384-well format recombinant BACE1 protein in a final concentration of 1 mg/ml is incubated for 120 minutes at room temperature with […] in incubation buffer (40 mM Citrate buffer pH 5.0, 0.04% PEG, 4% DMSO) in the absence or presence of compound. Next the amount of proteolysis is directly measured by fluorescence measurement at T=0 and T=120 (excitation at 320 nm and emission at 405 nm). Results are expressed in RFU (Relative Fluorescence Units), as difference between T120 and TO.
(§1) A best-fit curve is fitted by a minimum sum of squares method to the plot of % Controlmin versus compound concentration. From this an IC50 value (inhibitory concentration causing 50% inhibition of activity) can be obtained.

[2] = system: Abeta 1-42 produced and secreted into the medium of human neuroblastoma SKNBE2 cells; experiment: Cellular αLisa assay in SKNBE2 cells, Abeta 1-42; assay type: cell-based; details: SKNBE2 cells expressing wild type hAPP695, incubated for 18 hours, read-out: Cellular αLisa assay in SKNBE2 cells Abeta 42 pIC50 (converted)
Procedure: (§2) In two αLisa assays the levels of Abeta total and Abeta 1-42 produced and secreted into the medium of human neuroblastoma SKNBE2 cells are quantified. The assay is based on the human neuroblastoma SKNBE2 expressing the wild type Amyloid Precursor Protein (hAPP695). The compounds are diluted and added to these cells, incubated for 18 hours and then measurements of Abeta 1-42 and Abeta total are taken. Abeta total and Abeta 1-42 are measured by sandwich αLisa. αLisa is a sandwich assay using biotinylated antibody AbN/25 attached to streptavidin coated beads and antibody Ab4G8 or cAb42/26 conjugated acceptor beads for the detection of Abeta total and Abeta 1-42 respectively. In the presence of Abeta total or Abeta 1-42, the beads come into close proximity. The excitation of the donor beads provokes the release of singlet oxygen molecules that trigger a cascade of energy transfer in the acceptor beads, resulting in light emission. Light emission is measured after 1 hour incubation (excitation at […] and emission at 615 nm).
as §1

[3] = system: Abeta total produced and secreted into the medium of human neuroblastoma SKNBE2 cells; experiment: Cellular αLisa assay in SKNBE2 cells, Abeta total; assay type: cell-based; details: SKNBE2 cells expressing wild type hAPP695, incubated for 18 hours, read-out: Cellular αLisa assay in SKNBE2 cells Abetatotal pIC50 (converted)
Procedure: as §2, §1

SMILES	IC50 [1]	IC50 [2]	IC50 [3]	melting point
COc1nccnc1Nc1ccc(F)c([C@@]2(C)N=C(N)CO[C@@H]2F)c1 [Compound 8, (5R,6R)-6-fluoro-5-{2-fluoro-5-[(3-methoxypyrazin-2-yl)amino]phenyl}-5-methyl-5,6-dihydro-2H-1,4-oxazin-3-amine]	0.309 µM	0.129 µM	0.138 µM	–
COc1cccnc1Nc1cccc([C@@]2(C3CC3)N=C(N)CO[C@@]2(F)C(F)(F)F)c1 [Compound 1, (5R,6S)-5-cyclopropyl-6-fluoro-5-{3-[(3-methoxypyridin-2-yl)amino]phenyl}-6-(trifluoromethyl)-5,6-dihydro-2H-1,4-oxazin-3-amine]	0.0263 µM	0.0603 µM	0.0537 µM	–
CC1(c2cc(Nc3ncccc3C#N)ccc2F)N=C(N)COC1F (stereo not shown) [Compound 9]	0.224 µM	0.129 µM	0.0871 µM	–
COc1cccnc1Nc1ccc(F)c([C@@]2(C)N=C(N)CO[C@@H]2F)c1 [Compound 2, (5R,6R)-6-fluoro-5-{2-fluoro-5-[(3-methoxypyridin-2-yl)amino]phenyl}-5-methyl-5,6-dihydro-2H-1,4-oxazin-3-amine]	0.162 µM	0.024 µM	0.0195 µM	–
COc1cccnc1Nc1ccc(F)c([C@@]2(C)N=C(N)COC2=C(F)F)c1 [Compound 3, (5R)-6-(difluoromethylidene)-5-{2-fluoro-5-[(3-methoxyPyridin-2-yl)amino]phenyl}-5-methyl-5,6-dihydro-2H-1,4-oxazin-3-amine]	0.759 µM	0.105 µM	0.0891 µM	–
COc1cccnc1Nc1ccc(F)c([C@@]2(C)N=C(N)COC2C(F)F)c1 (single isomer, unassigned) [Compound 4, (5R,6R*)-6-(Difluoromethyl)-5-{2-fluoro-5-[(3-methoxypyridin-2-yl)amino]phenyl}-5-methyl-5,6-dihydro-2H-1,4-oxazin-3-amine]	0.0589 µM	0.00912 µM	0.0105 µM	136.93 °C
C[C@]1(c2cc(Nc3ncccn3)ccc2F)N=C(N)CO[C@@H]1F [Compound 5, (5R,6R)-6-fluoro-5-[2-fluoro-5-(pyrimidin-2-ylamino)phenyl]-5-methyl-5,6-dihydro-2H-1,4-oxazin-3-amine]	1.95 µM	1.26 µM	1.1 µM	–
COc1cccnc1Nc1ccc(F)c([C@@]2(C)N=C(N)CO[C@H]2C(F)(F)F)c1 [Compound 6, (5R,6R)-5-{2-fluoro-5-[(3-methoxypyridin-2-yl)amino]phenyl}-5-methyl-6-(trifluoromethyl)-5,6-dihydro-2H-1,4-oxazin-3-amine]	0.138 µM	0.0214 µM	0.0209 µM	–
C[C@]1(c2cc(Nc3ncccn3)ccc2F)N=C(N)CO[C@H]1C(F)(F)F [Compound 7, (5R,6R)-5-[2-fluoro-5-(pyrimidin-2-ylamino)phenyl]-5-methyl-6-(trifluoromethyl)-5,6-dihydro-2H-1,4-oxazin-3-amine]	3.72 µM	0.759 µM	0.832 µM	–
